Test results: PubChem BioAssay (NCI)
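In this assay, cells in 96-well plates receive the compound at five concentrations for 48 hours. Endpoints are linearly interpolated between the surrounding concentrations. Abbreviation: GI50, concentration required for 50% inhibition of growth. TGI denotes the concentration required for complete inhibition of growth.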

What was measured:
Test in all cases: NCI anticancer screen, dose series, 48 h
[1] = test system: 786-0 renal
[2] = test system: A498 renal
[3] = test system: A549 NSCLC
[4] = test system: ACHN renal
[5] = test system: BT-549 breast
[6] = test system: CAKI-1 renal
[7] = test system: CCRF-CEM leukemia
[8] = test system: COLO 205 colon
[9] = test system: DU-145 prostate
[10] = test system: EKVX NSCLC
[11] = test system: HCC-2998 colon
[12] = test system: HCT-116 colon
[13] = test system: HCT-15 colon
[14] = test system: HL-60(TB) leukemia
[15] = test system: HOP-62 NSCLC
[16] = test system: HOP-92 NSCLC
[17] = test system: HS 578T breast
[18] = test system: HT29 colon
[19] = test system: IGROV1 ovarian
[20] = test system: K-562 leukemia
[21] = test system: KM12 colon
[22] = test system: LOX IMVI melanoma
[23] = test system: M14 melanoma
[24] = test system: MALME-3M melanoma
[25] = test system: MCF7 breast
[26] = test system: MDA-MB-231 breast
[27] = test system: MDA-MB-435
[28] = test system: MOLT-4 leukemia
[29] = test system: NCI-H226 lung
[30] = test system: NCI-H23 lung
[31] = test system: NCI-H460 lung
[32] = test system: NCI-H522 lung
[33] = test system: NCI/ADR-RES ovarian
[34] = test system: OVCAR-3 ovarian
[35] = test system: OVCAR-4 ovarian
[36] = test system: OVCAR-5 ovarian
[37] = test system: OVCAR-8 ovarian
[38] = test system: PC-3 prostate
[39] = test system: RPMI-8226 leukemia
[40] = test system: RXF 393 renal
[41] = test system: SF-268 CNS
[42] = test system: SF-295 CNS
[43] = test system: SF-539 CNS
[44] = test system: SK-MEL-2 melanoma
[45] = test system: SK-MEL-28 melanoma
[46] = test system: SK-MEL-5 melanoma
[47] = test system: SK-OV-3 ovarian
[48] = test system: SN12C renal
[49] = test system: SNB-19 CNS
[50] = test system: SNB-75 CNS
[51] = test system: SW-620 colon
[52] = test system: TK-10 renal
[53] = test system: U251 CNS
[54] = test system: UACC-257 melanoma
[55] = test system: UACC-62 melanoma
[56] = test system: UO-31 renal

COc1ccc(/C(C)=C(\c2ccc(Cl)cc2)c2ccc(OCCN3CCCCC3)cc2)cc1 was tested, and the GI50 [1] was 0.746 µM, the TGI [1] was 1.9 µM and the GI50 [2] was 4.73 µM. The TGI [2] was 10.4 µM, the GI50 [3] was 4.51 µM and the TGI [3] was 10.2 µM. The GI50 [4] was 5.13 µM, the TGI [4] was 9.61 µM and the GI50 [5] was 3.19 µM. For the same compound, the TGI [5] was 7.55 µM, the GI50 [6] was 5.23 µM and the TGI [6] was 12.4 µM. The GI50 [7] was 3.05 µM, the TGI [7] was 14.4 µM and the GI50 [8] was 2.25 µM. For the same compound, the TGI [8] was 7.05 µM, the GI50 [9] was 8.29 µM and the TGI [9] was 26.6 µM. For the same compound, the GI50 [10] was 2.66 µM, the TGI [10] was 8.79 µM and the GI50 [11] was 3.84 µM. It also gave a TGI [11] of 8.1 µM, a GI50 [12] of 1.46 µM and a TGI [12] of 5.24 µM. For the same compound, the GI50 [13] was 1.16 µM, the TGI [13] was 4.56 µM and the GI50 [14] was 3.94 µM. The TGI [14] was 12.6 µM, the GI50 [15] was 4.83 µM and the TGI [15] was 9.96 µM. The GI50 [16] was 3.45 µM, the TGI [16] was 7.55 µM and the GI50 [17] was 5.16 µM. It also gave a TGI [17] of 13.3 µM, a GI50 [18] of 0.984 µM and a TGI [18] of 3.87 µM. It also gave a GI50 [19] of 4.93 µM, a TGI [19] of 11.2 µM and a GI50 [20] of 1.28 µM. It also gave a TGI [20] of 10.4 µM, a GI50 [21] of 2.72 µM and a TGI [21] of 16 µM. It also gave a GI50 [22] of 1.89 µM, a TGI [22] of 6.2 µM and a GI50 [23] of 0.861 µM. The TGI [23] was 2.36 µM, the GI50 [24] was 4.01 µM and the TGI [24] was 8.49 µM. It also gave a GI50 [25] of 0.604 µM, a TGI [25] of 5.71 µM and a GI50 [26] of 4.58 µM. For the same compound, the TGI [26] was 9.22 µM, the GI50 [27] was 3.93 µM and the TGI [27] was 8.56 µM. For the same compound, the GI50 [28] was 4.1 µM, the TGI [28] was 19.5 µM and the GI50 [29] was 4.85 µM. It also gave a TGI [29] of 9.7 µM, a GI50 [30] of 4.34 µM and a TGI [30] of 10.2 µM. For the same compound, the GI50 [31] was 4.15 µM, the TGI [31] was 9.34 µM and the GI50 [32] was 4.12 µM. It also gave a TGI [32] of 8.66 µM, a GI50 [33] of 4.79 µM and a TGI [33] of 9.86 µM. The GI50 [34] was 5.26 µM, the TGI [34] was 11 µM and the GI50 [35] was 3.76 µM. For the same compound, the TGI [35] was 9.51 µM, the GI50 [36] was 4.16 µM and the TGI [36] was 9.55 µM. The GI50 [37] was 5.64 µM, the TGI [37] was 11.8 µM and the GI50 [38] was 1.81 µM. It also gave a TGI [38] of 6.59 µM, a GI50 [39] of 1.44 µM and a TGI [39] of 6.64 µM. The GI50 [40] was 2.5 µM, the TGI [40] was 7.29 µM and the GI50 [41] was 7.75 µM. The TGI [41] was 26.8 µM, the GI50 [42] was 2.97 µM and the TGI [42] was 7.54 µM. The GI50 [43] was 3.54 µM, the TGI [43] was 7.68 µM and the GI50 [44] was 5.85 µM. It also gave a TGI [44] of 10.7 µM, a GI50 [45] of 3.99 µM and a TGI [45] of 8.4 µM. The GI50 [46] was 1.57 µM, the TGI [46] was 5.44 µM and the GI50 [47] was 6.25 µM. The TGI [47] was 12.3 µM, the GI50 [48] was 4.68 µM and the TGI [48] was 9.53 µM. The GI50 [49] was 5.32 µM, the TGI [49] was 12.6 µM and the GI50 [50] was 4.11 µM. For the same compound, the TGI [50] was 10.6 µM, the GI50 [51] was 3.34 µM and the TGI [51] was 8.09 µM. The GI50 [52] was 5.66 µM, the TGI [52] was 13.8 µM and the GI50 [53] was 4.13 µM. It also gave a TGI [53] of 8.77 µM, a GI50 [54] of 5.73 µM and a TGI [54] of 10.8 µM. For the same compound, the GI50 [55] was 2.12 µM, the TGI [55] was 6.45 µM and the GI50 [56] was 3.46 µM. The TGI [56] was 7.4 µM.
